Reference: patent US20240058457A1, “BTK DEGRADER” (Newave Pharmaceutical Inc., priority 2020, published 2024)

How the values were obtained:
Mice PK study = format: in vivo; settings: CD-1 mouse; for AUCinf(h*ng/mL)/(mg/kg): plasma, route not stated in table (text: oral PK profile)
Protocol: The pharmacokinetics of compounds were evaluated in CD-1 mouse via Intravenous and Oral Administration. The IV dose was administered as a slow bolus in the Jugular vein, and oral doses were administered by gavage. The formulation for IV dosing is 5% DMSO in 20% HPBCD in water, and the PO formulation is 2.5% DMSO, 10% EtOH, 20% Cremphor EL, 67.5% D5W. The PK time point for the IV arm was 5, 15, 30 min, 1, 2, 4, 6, 8, 12, 24 hours post dose, and for PO arm was 15, 30 min, 1, 2, 4, 6, 8, 12, 24 hours post dose. Approximately 0.03 mL blood was collected at each time point. Blood of each sample was transferred into plastic micro centrifuge tubes containing EDTA-K2 and plasma was collected within 15 min by centrifugation at 4000 g for 5 minutes in a 4° C. centrifuge. Plasma samples were stored in polypropylene tubes. The samples were stored in a freezer at −75±15° C. prior to analysis. Concentrations of compounds in the plasma samples were analyzed using a LC-MS/MS method. WinNonlin (Phoenix™, version 6.1) or other similar software was used for pharmacokinetic calculations. The following pharmacokinetic parameters were calculated, whenever possible from the plasma concentration versus time data: IV administration: C0, CL, Vd, T1/2, AUCinf, AUClast, MRT, Number of Points for Regression; PO administration: Cmax, Tmax, T1/2, AUCinf, AUClast, F %, Number of Points for Regression. The pharmacokinetic data was described using descriptive statistics such as mean, standard deviation. Additional pharmacokinetic or statistical analysis was performed at the discretion of the contributing scientist, and was documented in the data summary.

BTK = biological target: T1, BTK (Homo sapiens, UniProt Q06187); assay: BTK HTRF degradation assay; format: cell-based; settings: treatment time 24 h; Cisbio Total-BTK HTRF; Rec-1 / Ramos cells
T1 construct: endogenous in cells; host or cells: Rec-1 cells (ATCC) / Ramos cells
Protocol: Rec-1 cells were obtained from American Type Culture Collection and were grown in RPMI-1640 media (ATCC, 30-2001) supplemented with 10% heat-inactivated FBS (Corning Premium Fetal Bovine Serum from Fisher, MT35015CV). Compounds of the present invention were added to 50,000 Ramos cells in round-bottom 96 well plates with a final DMSO concentration of […] and were incubated at 37° C. 5% CO2 for different time. BTK levels were determined using Cisbio Total-BTK HTRF ([…] Time-Resolved Fluorescence) kit (63ADK064PEG) according to manufacturer's protocol. Briefly, cells were incubated in 1× supplied lysis buffer for 30 minutes. In an opaque white low volume 96 well plate (Cisbio, 66PL96005), cell lysate was combined with two different specific BTK antibodies, one conjugated with Eu3+-Cryptate FRET donor and one conjugated with d2 FRET acceptor. Assay controls include wells containing cell lysate with only the Eu3+-Cryptate FRET donor antibody and wells containing both HTRF antibodies and lysis buffer without cells or control lysate provided by Cisbio. HTRF ratio was calculated as (acceptor signal at 665 nm/donor signal at 620 nm)×[…]. Background HTRF levels were determined from the control well containing the donor, but no acceptor, antibody. Background HTRF levels were subtracted from all samples. Readouts were reported as HTRF levels relative to HTRF levels of DMSO-treated cells. Four-parameter non-linear regressions were performed in GraphPad Prism 7.02 to obtain DC50 values.

T1 sequence (Q06187 whole entry): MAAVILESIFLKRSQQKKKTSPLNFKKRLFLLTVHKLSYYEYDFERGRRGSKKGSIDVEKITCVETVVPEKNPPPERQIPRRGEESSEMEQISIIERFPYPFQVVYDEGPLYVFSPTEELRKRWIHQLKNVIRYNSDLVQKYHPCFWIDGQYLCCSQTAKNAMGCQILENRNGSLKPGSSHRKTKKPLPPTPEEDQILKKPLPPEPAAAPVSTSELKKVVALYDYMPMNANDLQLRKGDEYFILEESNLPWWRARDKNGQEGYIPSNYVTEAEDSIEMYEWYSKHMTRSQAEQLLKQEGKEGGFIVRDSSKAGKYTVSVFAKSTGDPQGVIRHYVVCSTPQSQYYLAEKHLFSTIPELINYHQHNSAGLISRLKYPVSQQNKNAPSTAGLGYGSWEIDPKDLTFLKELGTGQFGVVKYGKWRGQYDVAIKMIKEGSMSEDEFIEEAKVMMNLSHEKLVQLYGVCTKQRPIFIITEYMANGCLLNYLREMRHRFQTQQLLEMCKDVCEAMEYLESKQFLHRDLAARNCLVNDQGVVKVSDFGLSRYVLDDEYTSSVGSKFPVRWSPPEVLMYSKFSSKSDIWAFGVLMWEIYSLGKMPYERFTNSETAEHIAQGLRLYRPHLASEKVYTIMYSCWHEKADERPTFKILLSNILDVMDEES

SMILES	AUCinf(h*ng/mL)/(mg/kg) (Mice PK study)	DC50 (BTK)	Dmax % (BTK)	oral PK profile (comparison) (Mice PK study; oral)	Dmax (BTK)
C[C@H]1CN(C2CCN(c3ccc4c(c3)C(=O)N(C3CCC(=O)NC3=O)C4=O)CC2)CCN1c1ccc(Nc2cc(-c3ccnc(N4CCn5c(cc6c5CC(C)(C)C6)C4=O)c3CO)cn(C)c2=O)nc1 (stereo partly drawn) [Example 2, 5-{4-[(3S)-4-{6-[(2′-{4,4-dimethyl-9-oxo-1,10-diazatricyclo[6.4.0.0^{2,6}]dodeca-2(6),7-dien-10-yl}-3′-(hydroxymethyl)-1-methyl-6-oxo-[3,4′-bipyridin]-5-yl)amino]pyridin-3-yl}-3-methylpiperazin-1-yl]piperidin-1-yl}-2-(2,6-dioxopiperidin-3-yl)isoindole-1,3-dione]	3,120 (h*ng/mL)/(mg/kg)	0.46 nM	96%		
[2H]C([2H])([2H])n1cc(-c2ccnc(N3CCn4c(cc5c4CC(C)(C)C5)C3=O)c2CO)cc(Nc2ccc(N3CCN(C4CCN(c5ccc6c(c5)C(=O)N(C5CCC(=O)NC5=O)C6=O)CC4)C[C@@H]3C)cn2)c1=O (stereo partly drawn) [Example 22, 5-(4-((S)-4-(6-((2′-(7,7-dimethyl-1-oxo-1,3,4,6,7,8-hexahydro-2H-cyclopenta[4,5]pyrrolo[1,2-a]pyrazin-2-yl)-3′-(hydroxymethyl)-1-(methyl-d3)-6-oxo-1,6-dihydro-[3,4′-bipyridin]-5-yl)amino)pyridin-3-yl)-3-methylpiperazin-1-yl)piperidin-1-yl)-2-(2,6-dioxopiperidin-3-yl)isoindoline-1,3-dione]	3,822 (h*ng/mL)/(mg/kg)	1.1 nM		better oral PK profile than Example 2	98%
